In this assay the target is T1, GlyT1 (Homo sapiens, UniProt P48067).
T1 construct: expressed in transfected cells
T1 sequence (P48067 1-706): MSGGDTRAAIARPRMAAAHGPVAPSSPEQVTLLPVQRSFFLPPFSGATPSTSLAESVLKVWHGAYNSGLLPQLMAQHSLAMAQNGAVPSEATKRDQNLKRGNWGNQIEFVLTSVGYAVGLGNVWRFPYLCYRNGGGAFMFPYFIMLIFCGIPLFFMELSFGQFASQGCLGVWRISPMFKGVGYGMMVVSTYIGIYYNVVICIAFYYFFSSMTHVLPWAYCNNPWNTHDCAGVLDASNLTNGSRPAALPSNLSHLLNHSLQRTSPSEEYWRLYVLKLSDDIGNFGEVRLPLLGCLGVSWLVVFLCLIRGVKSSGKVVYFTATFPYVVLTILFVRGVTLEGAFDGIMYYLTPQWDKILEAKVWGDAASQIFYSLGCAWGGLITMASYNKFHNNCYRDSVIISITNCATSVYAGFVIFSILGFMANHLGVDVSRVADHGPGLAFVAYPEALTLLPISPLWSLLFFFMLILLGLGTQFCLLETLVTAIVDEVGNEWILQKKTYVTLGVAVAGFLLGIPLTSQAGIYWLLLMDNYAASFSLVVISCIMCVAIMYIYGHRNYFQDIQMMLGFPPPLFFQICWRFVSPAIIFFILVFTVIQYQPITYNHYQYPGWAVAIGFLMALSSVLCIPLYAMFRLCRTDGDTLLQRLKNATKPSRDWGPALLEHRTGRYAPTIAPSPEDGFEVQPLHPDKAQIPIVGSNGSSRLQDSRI
Description: Glycine Transporter 1 (GlyT1) uptake assay, scintillation proximity assay of [14C]-glycine uptake. It counts as cell-based. Particulars: SPA, four parameter logistic fit, read-out: GlyT1 (pIC50) (converted). An outline of the steps:
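IC50 values derive from four-parameter logistic curves fitted to dose-response data. Uptake of [14C]-glycine measured in scintillation proximity format.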
For the compound `CNC(=O)c1ccc(OC(C)C(F)(F)F)c(C(=O)N2CCc3nn(-c4ccc(F)cc4)cc3C2)c1Cl` (stereo not drawn) [Example 478, 2-Chloro-3-[2-(4-fluorophenyl)-2H 4H 5H 6H 7H-pyrazolo[4,3-c]pyridine-5-carbonyl]-N-methyl-4-[(1 1 1-trifluoropropan-2-yl)oxy]benzamide], the IC50 is below 100 nM.

Consider `N#Cc1ccc(C2(F)COC2)c(C(=O)N2CCc3nn(-c4ccccc4)cc3C2)c1F` [Example 178, 2-Fluoro-4-(3-fluorooxetan-3-yl)-3-{2-phenyl-2H 4H 5H 6H 7H-pyrazolo[4,3-c]pyridine-5-carbonyl}benzonitrile], for which the IC50 was above 10000 nM.

In the case of `CCS(=O)(=O)c1ccc(O[C@@H](C)C(F)(F)F)c(C(=O)N2Cc3cn(-c4ccccc4)nc3C2)c1` [Example 40, 5-[5-(Ethanesulfonyl)-2-{[(2S)-1 1 1-trifluoropropan-2-yl]oxy}benzoyl]-2-phenyl-2H 4H 5H 6H-pyrrolo[3,4-e]pyrazole], the IC50 was below 100 nM.

As for `Cc1c(F)ccc(-n2cc3c(n2)CN(C(=O)c2cc(S(C)(=O)=O)ccc2OCC(C)C)C3)c1F` [Example 67, 2-(2 4-Difluoro-3-methylphenyl)-5-[5-methanesulfonyl-2-(2-methylpropoxy)benzoyl]-2H 4H 5H 6H-pyrrolo[3,4-c]pyrazole], the IC50 was below 100 nM.

As to `COc1c(C#N)ccc(OC(C)C(F)(F)F)c1C(=O)N1CCc2c(cnn2-c2ccc(F)cc2F)C1` (stereo not drawn) [Example 575, 3-[1-(2 4-Difluorophenyl)-1H 4H 5H 6H 7H-pyrazolo[4,3-c]pyridine-5-carbonyl]-2-methoxy-4-[(1 1 1-trifluoropropan-2-yl)oxy]benzonitrile], the IC50 was below 100 nM.

For `Cc1cccc(-n2cc3c(n2)CN(C(=O)c2cc(S(=O)(=O)C(C)C)ccc2O[C@@H](C)C(F)(F)F)C3)c1F` [Example 87, 2-(2-Fluoro-3-methylphenyl)-5-[5-(propane-2-sulfonyl)-2-{[(2S)-1 1 1-trifluoropropan-2-yl]oxy}benzoyl]-2H 4H 5H 6H-pyrrolo[3,4-c]pyrazole], the IC50 is 100 to 1000 nM.

As to `Cc1cc(F)cnc1-n1cc2c(n1)CN(C(=O)c1cc(S(C)(=O)=O)ccc1O[C@@H](C)C(F)(F)F)C2` [Example 361, 5-Fluoro-2-[5-(5-methanesulfonyl-2-{[(2S)-1 1 1-trifluoropropan-2-yl]oxy}benzoyl)-2H 4H 5H 6H-pyrrolo[3,4-c]pyrazol-2-yl]-3-methylpyridine], the IC50 was 100 to 1000 nM.

For the compound `Cc1cccc(-n2cc3c(n2)CN(C(=O)c2cc(C#N)ccc2OC(C)C)C3)n1` [Example 338, 3-[2-(6-Methylpyridin-2-yl)-2H 4H 5H 6H-pyrrolo[3,4-c]pyrazole-5-carbonyl]-4-(propan-2-yloxy)benzonitrile], the IC50 is below 100 nM.

For `COc1c(C#N)ccc(OCC2(C(F)(F)F)CC2)c1C(=O)N1CCc2nn(-c3ccc(F)cc3)cc2C1` [Example 476, 3-[2-(4-Fluorophenyl)-2H 4H 5H 6H 7H-pyrazolo[4,3-c]pyridine-5-carbonyl]-2-methoxy-4-{[1-(trifluoromethyl)cyclopropyl]methoxy}benzonitrile], the IC50 is 1000 to 10000 nM.

Consider `CS(=O)(=O)c1ccc(-c2cccc(F)c2)c(C(=O)N2Cc3cn(CC4CC4(F)F)nc3C2)c1` (stereo not drawn) [Example 453, 2-[(2 2-Difluorocyclopropyl)methyl]-5-[2-(3-fluorophenyl)-5-methanesulfonylbenzoyl]-2H 4H 5H 6H-pyrrolo[3,4-c]pyrazole], for which the IC50 was below 100 nM.

`CC(C)Oc1ccc(C#N)cc1C(=O)N1Cc2cn(CC3CCC3)nc2C1` [Example 411, 3-[2-(Cyclobutylmethyl)-2H 4H 5H 6H-pyrrolo[3,4-c]pyrazole-5-carbonyl]-4-(propan-2-yloxy)benzonitrile]: the IC50 is 100 to 1000 nM.

For `Cc1cccnc1-n1cc2c(n1)CN(C(=O)c1c(O[C@H](C)C(F)(F)F)ccc(C#N)c1Cl)C2` [Example 31, 2-Chloro-3-[2-(3-methylpyridin-2-yl)-2H 4H 5H 6H-pyrrolo[3,4-c]pyrazole-5-carbonyl]-4-{[(2R)-1 1 1-trifluoropropan-2-yl]oxy}benzonitrile], the IC50 was 100 to 1000 nM.
